These results are taken from US7964587B2, “Tocopherol and tocotrienol aerosols” (Children's Hospital & Research Center at Oakland, priority 2002, dated 2011).

A short description of data set [1]: plasma and exudate concentrations of alpha-T, gamma-T and gamma-CEHC in the air-pouch model. The following applies: for gamma-T concentration in the collected exudate: 20-h after carrageenan.
Method: Carrageenan-induced inflammation in the air-pouch model was performed and evaluated substantially as previously described (14). Alpha-T and gamma-T were measured in plasma and exudate as previously described (12). Gamma-CEHC was quantified essentially as previously described (13).
To evaluate the relative bio-availability of the administrated compounds, we measured plasma and exudate concentrations of gamma-T and alpha-T as well as plasma gamma-CEHC.
Data set [2] concerns carrageenan-induced inflammation. As to the kind of experiment: carrageenan-induced inflammation in the air-pouch model. The class given is in vivo, rat. The method, then: For this experimental protocol, we adapted the methods recited in the Experimental Example reported below. […] Formulations were administered as described below, wherein the recited tocopherol was dissolved in tocopherol-stripped corn oil, and continuously administrated by gavage for three days before the induction of inflammation. The PGE2 component of the formulation was empirically varied and adjusted to provide a minimized synergistic concentration. For example, aspirin formulations were adjusted to 50 or 100 mg/Kg with gamma-T at 30 mg/Kg. In controls evaluating the effects of aspim or gamma-T alone, we increased the aspririn dosage to 150 mg/Kg and gamma-T to […], respectively.
Gamma-CEHC was quantified essentially as previously described (13).
For the measurement of PGE2, LTB4 and 8-isoprostane, the exudate fluid was mixed vigorously with 2 mL methanol to precipitate proteins, and with 5 mL hexane to remove lipids. Following a brief centrifugation and aspiration of the hexane layer, the methanol layer was removed and evaporated under N2. PGE2, LTB4 and 8-isoprostane were measured using the corresponding ELISA kits from Cayman Chemicals (Ann Arbor, Mich.). TNF-a and lactate dehydrogenase (LDH) in the exudate were measured directly using an ELISA kit from R&D (Minneapolis, Minn.) and an analytical kit from Roche (Indianapolis, Ind.), respectively.
The total amount of nitrate and nitrite in the exudate was measured using the Model 280 nitric oxide analyzer (NOA™) (Sievers Instruments, Inc.; Boulder, Colo.). Nitrite and nitrate in the exudate were reduced by vanadium (III) to nitric oxide, which then was measured by a red-sensitive photomultiplier tube after being converted by ozone to chemiluminescent reactive nitrogen dioxide. Nitrite and nitrate were quantified based on a standard curve from nitrate that was established under the identical conditions.
Carrageenan-induced inflammation in the air-pouch model is commonly used to evaluate the pharmaceutical potency of anti-inflammatory drugs (14). […] These cells play a key role in the inflammatory response (11, 14, 15). A single injection of carrageenan caused a potent localized inflammation, as indicated by a marked increase in white cell infiltration, eicosanoid formation and tissue damages (11). To study the effect of gamma-CEHC on eicosanoid synthesis and neutrophil infiltration, it (1 mg/ml, 2 ml in PBS) was injected directly into the air pouch right before the injection of carrageenan. Since the retention of gamma-CEHC is relatively short (16), its effect was evaluated at 6 h after the induction of inflammation.
To test the effects of tocopherols, alpha-T or gamma-T, dissolved in tocopherol-stripped corn oil, was continuously administrated by gavage for three days before the induction of inflammation. Effects were evaluated at 20 h after carrageenan injection, when cell infiltration had reached a maximum in the pouch.

The subject of data set [3] is PGE2. As to the kind of experiment: inhibition of PGE2, apparent IC50s of vitamin E forms. The class given is cell-based. As to conditions: for inhibitory effect on PGE2: e.g. ref. 10.
For data set [4], the system named is carrageenan-induced inflammation. As to conditions: cited from earlier work.
Data set [5] has as its system normal epithelial cells. As to the kind of experiment: effect on normal epithelial cells. The class given is cell-based.
Data set [6] concerns human prostate epithelial cancer cells. As to the kind of experiment: anti-proliferative effect on prostate cancer cells. The class given is cell-based.
For data set [7] the following is noted: cited from earlier work.
For data set [8], the system named is lung epithelial cancer cells. As to the kind of experiment: anti-proliferative effect on lung cancer cells. The class given is cell-based, human.
Where [9] appears, read: 1 mg/ml, 2 ml in PBS injected into the air pouch, 6 h.
The mark [10] stands for this setting: 33 mg/kg by gavage for three days, 20 h after carrageenan, P<0.05.

pIC50: −log10 of the molar value. Where two headings read alike, the source gives them in different places.

Turning to `Cc1c(C)c2c(c(C)c1O)CC[C@@](C)(CCC[C@H](C)CCC[C@H](C)CCCC(C)C)O2` [alpha-T, alpha-tocopherol, reference compound], the “increased alpha-T level in the plasma and exudate” value in data set [1] (33 mg/kg alpha-T) was “approximately 2 fold”. For the same molecule, in data set [1] (P<0.05), the “decrease of gamma-T in the exudate caused by alpha-T administration” value was 40% and the “decrease of gamma-T in the plasma caused by alpha-T administration” value is around 55%. Besides, the “effects on generation of eicosanoids and 8-isoprostane” value in data set [2] (33 mg/kg) is “did not show any significant effects”. The “inhibitory effect on PGE2” value in data set [3] was “weak to no inhibitory effect”.

Regarding `CC(=O)Oc1ccccc1C(=O)O` [aspirin, Acetylsalicylic acid], in data set [4] (doses of 100-150 mg/kg), the neutrophil infiltration result was “did not affect” and the “reduction of PGE2” value is 50-70%. Also, in data set [4] (higher doses, >200-300 mg/kg), the cell infiltration result is on record as “inhibits cell infiltration”.

Regarding `Cc1cc(O)c(C)c2c1O[C@](C)(CCC[C@H](C)CCC[C@H](C)CCCC(C)C)CC2` [beta-T, beta-tocopherol, reference compound], in data set [3], the “inhibitory effect on PGE2” value is recorded as “weak to no inhibitory effect”.

The pIC50 is −log10 of the IC50, conventionally taken in molar units. Take `Cc1cc(O)cc2c1O[C@](C)(CCC[C@H](C)CCC[C@H](C)CCCC(C)C)CC2` [delta-T, Delta-tocopherol]: the pIC50 in data set [3] was 5.30 to 5.60.

In the case of `Cc1c(O)cc2c(c1C)OC(C)(CCC(=O)O)CC2` (centres unmarked) [gamma-CEHC, 2,7,8-trimethyl-2-(b-carboxyethyl)-6-hydroxychroman], in data set [1] (rat, in vivo), the “plasma concentration of gamma-CEHC” value was “Nano-molar concentrations” and the “plasma gamma-CEHC level relative to plasma gamma-T” value was “less than 10%”. In data set [2] (setting [9]), the “inhibition of LTB4” value was “inhibited LTB4 and neutrophil infiltration, though non-significantly”; the “inhibition of neutrophil infiltration” value is “inhibited LTB4 and neutrophil infiltration, though non-significantly”. Besides, the “reduction of PGE2 in the pouch” value in data set [2] (1 mg/ml, 2 ml in PBS injected into the air pouch, 6 h after induction, P<0.05) is on record as around 29%.

For `Cc1c(O)cc2c(c1C)O[C@](C)(CCC[C@H](C)CCC[C@H](C)CCCC(C)C)CC2` [gamma-T, gamma-tocopherol], the “elevation of gamma-T in exudate fluid vs corn-oil fed controls” value in data set [1] (33 mg/kg) is listed as around 10 fold; in data set [1] (100 mg/kg) it was around 20 fold. The gamma-T concentration in exudate, corresponding molar concentration was around 10 µM in data set [1] (33 mg/kg) and around 20 µM in data set [1] (100 mg/kg). In addition, the “increase of gamma-T in the plasma vs corn-oil fed controls” value is 3 fold in data set [1] (33 mg/kg) and 5 fold in data set [1] (100 mg/kg). The “ratio of gamma-T to alpha-T in the exudate” value is on record as around 0.3 in data set [1] (33 mg/kg gamma-T) and around 0.7 in data set [1] (100 mg/kg gamma-T). Also, the “gamma-T concentration in the collected exudate” value in data set [1] (33 mg/kg) is given as 93.3 nmol/gprotein; in data set [1] (100 mg/kg), 193 nmol/gprotein. Further, the “ratio of gamma-T to alpha-T in the plasma” value in data set [1] (33 or 100 mg/kg gamma-T) is given as around 0.15. Also, in data set [1] (rat, in vivo), the “effect of gamma-T administration on alpha-T levels” value is “did not significantly affect”. Further, the “effect on normal epithelial cells” value in data set [5] is listed as “had no effect”. The anti-proliferative effect result in data set [6] and in data set [8] was “showed anti-proliferative effects” in each case. Further, in data set [7], the “fraction of gamma-T converted to gamma-CEHC” value is listed as at most 50%. Also, in data set [2] (33 mg/kg), the “effect on total nitrate and nitrite” value was “had no effect”. Further, the “reduction of LTB4” value in data set [2] (setting [10]) is reported as 70%. For the same molecule, the “reduction of PGE2” value in data set [2] (setting [10]) amounted to 46%. Besides, the “reduction of 8-isoprostane in the pouch (lipid peroxidation)” value is on record as around 57% in data set [2] (33 mg/kg, P<0.05) and around 57% in data set [2] (100 mg/kg, P<0.05). The “attenuation of the loss of food consumption” value in data set [2] (33 mg/kg, non-significant, P=0.2) amounted to 20%; in data set [2] (100 mg/kg, P<0.03) it was 30%. In data set [2] (33 mg/kg, non-significant, P=0.29), the “inhibition of TNF-a” value is recorded as around 51%. In data set [2] (100 mg/kg by gavage for three days, 20 h, P<0.05), the “inhibitory potency against PGE2” value is 51%. Besides, the “lowering of LDH (cytotoxicity and tissue damage marker)” value in data set [2] (100 mg/kg, P=0.067) is recorded as 30%. Also, the “reduction of TNF-a” value in data set [2] (100 mg/kg, P=0.069) was 65%. Also, in data set [2] (100 mg/kg, P=0.1), the “reduction of total nitrite and nitrate” value is 40%. Further, the neutrophil infiltration entry in data set [2] (gavage 33 or 100 mg/kg, 20 h) is given as “did not affect”. The pIC50 in data set [3] was 5.00 to 5.30.

Consider `CC(C)=CCC/C(C)=C/CC/C(C)=C/CC[C@]1(C)CCc2cc(O)c(C)c(C)c2O1` [gamma-tocotrienol], for which the pIC50 in data set [3] is 5.60 to 6.00.

Regarding alpha-tocotrienol [reference compound], the “inhibitory effect on PGE2” value in data set [3] is listed as “weak to no inhibitory effect”.
